Assay results reported in the supplement of paper PMC10307832.

Compound: COc1cc2nc(N3CCCN(C)CC3)nc(NC3CCN(Cc4ccccc4)CC3)c2cc1OC + CCNC(=O)c1noc(-c2cc(C(C)C)c(O)cc2O)c1-c1ccc(CN2CCOCC2)cc1 [Luminespib] (partner 0.01 µM)
Assay: relative viability (nuclei count vs DMSO), 5 days (fraction); higher = more cells survive
Method in brief: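 Values are medians from duplicate plates. Each reflects relative viability, defined as the nuclei count of treated wells over that of vehicle wells. Lung cancer cell lines in 1536-well plates were pin-tool dosed one day after seeding with one drug alone or with a fixed anchor-drug dose plus five library-drug doses (not always all listed) in √10 steps, then fixed, stained and imaged at 4× after 5 days.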

Row | Cell Line | relative viability (first compound 0.2 µM) | relative viability (first compound 0.6325 µM) | relative viability (first compound 2 µM) | relative viability (first compound 6.325 µM)
1 | NCI-H2342 | 0.689 | 0.673 | 0.677 | 0.75
2 | HCC-15 | 0.174 | 0.205 | 0.342 | 0.241
3 | A-427 | 0.934 | 0.784 | 0.8 | 0.997
4 | NCI-H2228 | 0.162 | 0.12 | 0.138 | 0.101
5 | NCI-H1734 | 0.182 | 0.194 | 0.183 | 0.172
6 | PC-14 | 0.123 | 0.242 | 0.162 | 0.122
7 | NCI-H1915 | 0.762 | 0.731 | 0.794 | 0.893
8 | NCI-H1666 | 0.973 | 0.997 | 1.11 | 0.947
9 | SK-MES-1 | 0.836 | 0.702 | 0.889 | 0.129
10 | SW 1573 | 0.179 | 0.27 | 0.356 | 0.152
11 | NCI-H661 | 0.903 | 0.894 | 0.911 | 0.957
12 | PC-3 [JPC-3] | 0.753 | 0.675 | 0.745 | 0.585
13 | NCI-H1623 | 0.493 | 0.586 | 0.502 | 0.513
14 | LC-2-ad | 0.961 | 0.973 | 1.21 | 1.06
15 | CAL-12T | 0.441 | 0.308 | 0.337 | 0.28
16 | RERF-LC-KJ | 1.15 | 1.13 | 1.33 | 0.903
17 | NCI-H1650 | 0.181 | 0.19 | 0.197 | 0.174
18 | BEN | 0.415 | 0.737 | 0.264 | 0.516
19 | EMC-BAC-2 | 1.09 | 1.17 | 1.2 | 1.14
20 | LU99A | 0.258 | 0.246 | 0.225 | 0.231
21 | ABC-1 | 0.588 | 0.52 | 0.512 | 0.737
22 | NCI-H2170 | 0.887 | 0.648 | 0.88 | 0.69
23 | NCI-H2347 | 0.57 | 0.521 | 0.446 | 0.524
24 | NCI-H1993 | 0.818 | 0.719 | 0.923 | 0.867

Row | Cell Line | relative viability (first compound 0.2 µM) | relative viability (first compound 0.6325 µM) | relative viability (first compound 2 µM) | relative viability (first compound 6.325 µM)
25 | NCI-H322M | 0.766 | 0.943 | 0.799 | 0.832
26 | NCI-H838 | 0.378 | 0.324 | 0.296 | 0.294
27 | HARA | 0.703 | 0.467 | 0.744 | 0.736
28 | NCI-H2087 | 0.188 | 0.162 | 0.364 | 0.136
29 | NCI-H1437 | 1.12 | 1.06 | 1.21 | 0.965
30 | NCI-H1792 |  | 0.377 | 0.419 | 0.721
31 | ChaGo-K-1 | 0.569 | 0.671 | 0.74 | 0.527
32 | NCI-H650 | 0.746 | 0.628 | 0.783 | 0.661
33 | COR-L23 | 0.752 | 0.731 | 0.761 | 0.614
34 | COR-L 105 | 0.948 | 0.899 | 1.02 | 0.469
35 | LK-2 | 0.188 | 0.188 | 0.164 | 0.186
36 | 201T | 1.09 | 1.12 | 1.1 | 1.08
37 | HCC-44 | 0.96 | 1.08 | 1.34 | 1.34
38 | NCI-H596 | 0.87 | 0.871 | 0.927 | 1.02
39 | H3255 | 1.14 | 0.852 | 0.878 | 0.898
40 | NCI-H647 | 0.352 | 0.249 | 0.159 | 0.292
41 | NCI-H2023 | 0.818 | 0.646 | 0.637 | 0.134
42 | NCI-H23 | 0.223 | 0.209 | 0.206 | 0.187
43 | NCI-H1944 | 0.829 | 0.668 | 0.863 | 0.661
44 | NCI-H1793 | 0.18 | 0.193 | 0.134 | 0.154
45 | NCI-H520 | 0.321 | 0.227 | 0.27 | 0.214
46 | NCI-H460 | 0.0382 | 0.0418 | 0.0348 | 0.0281
47 | EKVX | 0.829 | 0.878 | 0.831 | 0.888
48 | NCI-H358 | 0.506 | 0.275 | 0.434 | 0.208

Row | Cell Line | relative viability (first compound 0.2 µM) | relative viability (first compound 0.6325 µM) | relative viability (first compound 2 µM) | relative viability (first compound 6.325 µM)
49 | EPLC-272H | 0.228 | 0.736 | 0.262 | 0.432
50 | NCI-H1563 | 0.544 | 0.515 | 0.506 | 0.507
51 | NCI-H1395 | 0.7 | 0.695 | 0.7 | 0.71
52 | NCI-H2126 | 0.877 | 0.864 | 0.754 | 0.815
53 | LXF-289 | 0.592 | 0.651 | 0.729 | 0.676
54 | NCI-H2009 | 1.05 | 1.08 | 1.06 | 0.937
55 | NCI-H522 | 1.03 | 1.23 | 1.32 | 1.12
56 | NCI-H2405 | 0.778 | 0.673 | 0.75 | 0.786
57 | NCI-H1755 | 0.44 | 0.536 | 0.406 | 0.478
58 | LOU-NH91 | 0.383 | 0.295 | 0.359 | 0.367
59 | NCI-H3122 | 0.0795 | 0.0919 | 0.0888 | 0.0791
60 | HCC-827 | 0.627 | 0.555 | 0.634 | 0.612
61 | SK-LU-1 | 0.184 | 0.213 | 0.197 | 0.178
62 | NCI-H1975 | 0.159 | 0.212 | 0.21 | 0.264
63 | NCI-H1651 | 0.905 | 0.846 | 1.14 | 0.804
64 | NCI-H441 | 0.318 | 0.368 | 0.334 | 0.584
65 | LCLC-103H | 0.905 | 1.08 | 0.976 | 1.01
66 | LCLC-97TM1 | 0.79 | 0.73 | 0.822 | 0.777
67 | NCI-H727 | 0.332 | 0.355 | 0.512 | 0.56
68 | NCI-H1355 | 0.715 | 0.693 | 0.734 | 0.773
69 | HOP-62 | 0.907 | 0.856 | 0.817 | 0.952
70 | NCI-H2085 | 0.458 | 0.393 | 0.373 | 0.404
71 | SW 900 | 0.143 | 0.188 | 0.18 | 0.156
